The target in the first experiment is AM2 S31 (wild-type serine at position 31 in the M2 protein), influenza virus A/Udorn/72 (Influenza A virus, UniProt P0DOF5). The experiment can be described thus: cell-based. The settings on record: 100 uM; Xenopus oocytes; activity range class.
AM2 S31 (wild-type serine at position 31 in the M2 protein), influenza virus A/Udorn/72, sequence (P0DOF5 whole entry, looked up): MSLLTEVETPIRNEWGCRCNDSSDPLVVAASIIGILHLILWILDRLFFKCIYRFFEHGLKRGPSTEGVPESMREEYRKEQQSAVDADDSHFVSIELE
As to `F[B-](F)(F)C[NH2+]C12CC3CC(CC(C3)C1)C2` [Example 204a, N-[(Trifluoro-4-boranyl)methyl]adamantan-1-aminium], the “S31 OOcyte Inhibition at 100 uM (%)” value is “A ((A)=31-95%)”.

Staying with this experiment, now noted: 100 uM; Xenopus oocytes; activity range class; read-out: S31 OOcyte Inhibition at 100 uM (%).
Broadly, the inhibition is the percentage by which the read-out fell short of the control. For `Brc1ccc(-c2ccc(CNC34CC5CC(CC(C5)C3)C4)s2)s1` [Example 159a, N-((5′-bromo-[2,2′-bithiophen]-5-yl)methyl)adamantan-1-amine], the inhibition at 100 µM lay in the range of 0 to 30%.

Consider `c1coc(-c2nc(CNC34CC5CC(CC(C5)C3)C4)no2)c1` [Example 160a, N-((5-(furan-2-yl)-1,2,4-oxadiazol-3-yl)methyl)adamantan-1-amine], for which the inhibition at 100 µM was 0 to 30%.

As for `c1cn(-c2ccc(CNC34CC5CC(CC(C5)C3)C4)s2)cn1` [Example 161a, N-((5-(1H-imidazol-1-yl)thiophen-2-yl)methyl)adamantan-1-amine], the inhibition at 100 µM was 0 to 30%.

Consider `c1cc(-c2ccc(CNC34CC5CC(CC(C5)C3)C4)o2)[nH]n1` [Example 162a, N-((5-(1H-pyrazol-5-yl)furan-2-yl)methyl)adamantan-1-amine], for which the inhibition at 100 µM was in the range of 0 to 30%.

On to `Fc1ccc(-c2nc(CNC34CC5CC(CC(C5)C3)C4)no2)cc1` [Example 163a], for which the inhibition at 100 µM lay in the range of 0 to 30%.

Regarding `c1ccc(-c2cc(CNC34CC5CC(CC(C5)C3)C4)on2)cc1` [Example 164a], the inhibition at 100 µM was in the range of 0 to 30%.

On to `CCc1nc(CNC23CC4CC(CC(C4)C2)C3)no1` [Example 165a], for which the inhibition at 100 µM lay within 31 to 95%.

Consider `C(NC12CC3CC(CC(C3)C1)C2)c1noc(C2CC2)n1` [Example 166a], for which the inhibition at 100 µM fell in the range of 0 to 30%.

With `c1ccc(C2=NOC(CNC34CC5CC(CC(C5)C3)C4)C2)cc1` (centres unmarked) [Example 167a, N-((3-phenyl-4,5-dihydroisoxazol-5-yl)methyl)adamantan-1-amine], the inhibition at 100 µM was in the range of 0 to 30%.

As to `c1csc(C2=NOC(CNC34CC5CC(CC(C5)C3)C4)C2)c1` (centres unmarked) [Example 168a, N-((3-(thiophen-2-yl)-4,5-dihydroisoxazol-5-yl)methyl)adamantan-1-amine], the inhibition at 100 µM fell in the range of 0 to 30%.

With `O=c1[nH]cc(CNC23CC4CC(CC(C4)C2)C3)c(=O)[nH]1` [Example 169a, 5-((adamantan-1-ylamino)methyl)pyrimidine-2,4(1H,3H)-dione], the inhibition at 100 µM is 0 to 30%.

With `OC1CCC(CNC23CC4CC(CC(C4)C2)C3)CC1` (centres unmarked) [Example 170a, 4-(Adamantan-1-ylaminomethyl)-cyclohexanol], the inhibition at 100 µM lay in the range of 0 to 30%.

Consider `c1scc2[nH]c(CNC34CC5CC(CC(C5)C3)C4)nc12` [Example 171a, Adamantan-1-yl-(1H-thieno[3,4-d]imidazol-2-ylmethyl)-amine], for which the inhibition at 100 µM was in the range of 0 to 30%.

With `Cn1c(CNC23CC4CC(CC(C4)C2)C3)cc2sccc21` [Example 172a, Adamantan-1-yl-(4-methyl-4H-thieno[3,2-b]pyrrol-5-ylmethyl)-amine], the inhibition at 100 µM is 0 to 30%.

Turning to `Clc1cc2cc(CNC34CC5CC(CC(C5)C3)C4)sc2s1` [Example 173a, Adamantan-1-yl-(5-chloro-thieno[2,3-b]thiophen-2-ylmethyl)-amine], the inhibition at 100 µM fell in the range of 31 to 95%.

Take `Cc1csc2sc(CNC34CC5CC(CC(C5)C3)C4)c(C)c12` [Example 176a]: the inhibition at 100 µM was 0 to 30%.

Take `Cc1c(CNC23CC4CC(CC(C4)C2)C3)sc2ccccc12` [Example 177a, Adamantan-1-yl-(3-methyl-benzo[b]thiophen-2-ylmethyl)-amine]: the inhibition at 100 µM lay in the range of 31 to 95%.

`CC(NC12CC3CC(CC(C3)C1)C2)c1cc2ccccc2s1` (centres unmarked) [Example 178a]: the inhibition at 100 µM was 31 to 95%.

For the compound `Oc1ccc2[nH]c(CNC34CC5CC(CC(C5)C3)C4)cc2c1` [Example 179a], the inhibition at 100 µM lay within 0 to 30%.

With `Cn1c(CNC23CC4CC(CC(C4)C2)C3)nc2ccccc21` [Example 180a, Adamantan-1-yl-(1-methyl-1H-benzoimidazol-2-ylmethyl)-amine], the inhibition at 100 µM fell in the range of 0 to 30%.

On to `Clc1ccc2[nH]c(CNC34CC5CC(CC(C5)C3)C4)nc2c1` [Example 181a, Adamantan-1-yl-(5-chloro-1H-benzoimidazol-2-ylmethyl)-amine], for which the inhibition at 100 µM was in the range of 0 to 30%.

For the compound `COc1ccc2[nH]c(CNC34CC5CC(CC(C5)C3)C4)cc2c1` [Example 182a], the inhibition at 100 µM fell in the range of 0 to 30%.

Take `Clc1cccc2cc(CNC34CC5CC(CC(C5)C3)C4)sc12` [Example 183a, Adamantan-1-yl-(7-chloro-benzo[b]thiophen-2-ylmethyl)-amine]: the inhibition at 100 µM lay within 31 to 95%.

For `Cc1cccc2nc(CNC34CC5CC(CC(C5)C3)C4)[nH]c12` [Example 184a, Adamantan-1-yl-(7-methyl-1H-benzoimidazol-2-ylmethyl)-amine], the inhibition at 100 µM fell in the range of 0 to 30%.

Take `COc1ccc2cc(CNC34CC5CC(CC(C5)C3)C4)sc2c1` [Example 185a, N-((6-methoxybenzo[b]thiophen-2-yl)methyl)adamantan-1-amine]: the inhibition at 100 µM was 0 to 30%.

In the case of `COc1ccc2cc(CNC34CC5CC(CC(C5)C3)C4)[nH]c2c1` [Example 186a, N-((6-methoxy-1H-indol-2-yl)methyl)adamantan-1-amine], the inhibition at 100 µM fell in the range of 0 to 30%.

For `OC12CC3CC(C1)CC(NCc1cccs1)(C3)C2` [Example 187a, 3-[(Thiophen-2-ylmethyl)-amino]adamantan-1-ol], the inhibition at 100 µM fell in the range of 0 to 30%.

On to `OC12CC3CC(C1)CC(NCc1ccc(Br)s1)(C3)C2` [Example 188a, 3-[(5-Bromo-thiophen-2-ylmethyl)-amino]adamantan-1-ol], for which the inhibition at 100 µM fell in the range of 0 to 30%.

Consider `OC12CC3CC(C1)CC(NCc1ccc(Cl)s1)(C3)C2` [Example 189a, 3-[(5-Chloro-thiophen-2-ylmethyl)-amino]adamantan-1-ol], for which the inhibition at 100 µM is 0 to 30%.

As for `COC(=O)c1ccc(-c2ccc(CNC34CC5CC(CC(O)(C5)C3)C4)cc2)cc1` [Example 190a, 4′-[(3-Hydroxy-adamantan-1-ylamino)-methyl]-biphenyl-4-carboxylic acid methyl ester], the inhibition at 100 µM was in the range of 0 to 30%.

Consider `OC12CC3CC(C1)CC(NCc1ccc(-c4ccccc4)s1)(C3)C2` [Example 191a, 3-[(5-Phenyl-thiophen-2-ylmethyl)-amino]adamantan-1-ol], for which the inhibition at 100 µM was in the range of 0 to 30%.

In the case of `OC12CC3CC(C1)CC(NCc1cc4sccc4s1)(C3)C2` [Example 192a, 3-[(Thieno[3,2-b]thiophen-2-ylmethyl)-amino]-adamantan-1-ol], the inhibition at 100 µM was 0 to 30%.

For `C[Si](C)(C)c1ccc(CNC23CC4CC(CC(O)(C4)C2)C3)cc1` [Example 193a, (1s,3r,5R,7S)-3-((4-(trimethylsilyl)benzyl)amino)adamantan-1-ol], the inhibition at 100 µM was in the range of 0 to 30%.

As for `OC12CC3CC(C1)CC(NCc1cc(-c4ccccc4)on1)(C3)C2` [Example 194a, (1s,3r,5R,7S)-3-(((5-phenylisoxazol-3-yl)methyl)amino)adamantan-1-ol], the inhibition at 100 µM lay within 0 to 30%.

Turning to `OC12CC3CC(C1)CC(NCc1cc4cc(Br)sc4s1)(C3)C2` [Example 195a, 3-[(5-Bromo-thieno[2,3-b]thiophen-2-ylmethyl)-amino]-adamantan-1-ol], the inhibition at 100 µM was 0 to 30%.

`Oc1ccc(CNC23CC4CC(CC(O)(C4)C2)C3)c(O)c1` [Example 196a, 4-[(3-Hydroxy-adamantan-1-ylamino)-methyl]-benzene-1,3-diol]: the inhibition at 100 µM was 0 to 30%.

`C(#Cc1ccccc1)CNC12CC3CC(CC(C3)C1)C2` [Example 198a, N-(3-phenylprop-2-yn-1-yl)adamantan-1-amine]: the inhibition at 100 µM was 0 to 30%.

For the compound `C(=C\c1ccccc1)/CNC12CC3CC(CC(C3)C1)C2` [Example 199a, N-cinnamyladamantan-1-amine], the inhibition at 100 µM is 0 to 30%.

As for `Clc1ccc(/C=C/CNC23CC4CC(CC(C4)C2)C3)cc1` [Example 200a, N-((E)-3-(4-chlorophenyl)allyl)adamantan-1-amine], the inhibition at 100 µM was 0 to 30%.

In the case of `COc1ccc2nc(CN(Cc3nc4ccc(OC)cc4[nH]3)C34CC5CC(CC(C5)C3)C4)[nH]c2c1` [Example 201a, Adamantan-1-yl-bis-(6-methoxy-1H-benzoimidazol-2-ylmethyl)-amine], the inhibition at 100 µM was in the range of 0 to 30%.

For `Cc1ncc(CN(Cc2cnc(C)s2)C23CC4CC(CC(C4)C2)C3)s1` [Example 202a, N,N-bis((2-methylthiazol-5-yl)methyl)adamantan-1-amine], the inhibition at 100 µM lay in the range of 0 to 30%.

Turning to `c1ccn2c(CNC34CC5CC(CC(C5)C3)C4)cnc2c1` [Example 203a, Adamantan-1-yl-imidazo[1,2-a]pyridin-3-ylmethyl-amine], the inhibition at 100 µM is 31 to 95%.

For `c1csc(-c2ccc(CNC3C4CC5CC(C4)CC3C5)s2)c1` (centres unmarked) [Example 205a, N-([2,2′-bithiophen]-5-ylmethyl)adamantan-2-amine], the inhibition at 100 µM was in the range of 0 to 30%.
